Measured values: patent US8273744B2, “AMPK modulators” (priority 2008, dated 2012)

These compounds were tested on AMPK (assay: In vitro assay of AMPK activity (AlphaScreen, phosphorylation of human ACC1 fragment aa 1-120)). Conditions: AMPK partially purified from HEK cells, 100 uM ATP, room temperature, 60 minutes, read-out: ED50 (the source's name).
Format: biochemical
Procedure: AMPK activity was measured by the phosphorylation of the amino-teminal fragment of human acetyl CoA carboxylase-type 1, amino acids 1-120. The fragment was expressed as a biotinylated fusion protein in E. coli. The enzyme assay was conducted in a 5 ul reaction mixture containing 60 mM HEPES, pH7.0, 50 mM NaCL, 1 mM DTT, 5 mM MgCL2, 0.05% Tween-20, 100 uM ATP and with 25 uM AMP as a positive control. The reaction was carried out at room temperature for 60 minutes and stopped by addition of 5 ul of stop solution consisting of 20 mM EDTA, 0.1% BSA, 1% Triton-X-100, 0.01% Tween-20, 100 mM Tris pH8.0, 1:5,000 dilution of internally producted anti-pS79 (acetyl CoA carboxylase-1) purified rabbit polyclonal antibody, 40 ug/ml of AlphaScreen (Perkin Elmer) Acceptor beads and 40 ug/ml of AlphaScreen (Perkin Elmer) donor beads. The reaction mixture was further incubated at RT for 2 hours and analyzed on Fusion-Alpha microplate analyzer.
The AMPK assay was performed in a 25 ul reaction volume with the same reaction buffer as AMPK alpha assay at 30 C for 30 minutes. The reaction was stopped with SDS-PAGE sample buffer. The phosphorylated-GST-ACC was subjected to western blot analysis with anti-phospho-serine 79-ACC1 antibody (Cell Signaling Technologies). AMPK used in the assays described above was partially purified (Blazquez, C. et. al.).
The AMP-activated protein kinase is involved in the regulation of ketone body production by astrocytes. J. Neurochem. 73: 1674 (1999)) from HEKs (a human embryonic kidney cell line) and unless otherwise specified, chemicals used in the above assay were supplied by Sigma.
With `N#Cc1c(O)cc2onc(-c3ccc(-c4ccccc4O)cc3)c2c1O` [Compound 9, 3-(2-Hydroxybiphenyl)-4,6-dihydroxyisoxazolo[5,4-b]pyridine-5-carbonitrile] the EC50 was 10 to 50 µM.
In the case of `N#Cc1c[nH]c2ccc(-c3ccc(-c4ccccc4O)cc3)cc12` [Compound 5, 5-(2-Hydroxybiphenyl)-1H-indole-3-carbonitrile], the EC50 is reported as at most 10 µM.
Compound `N#Cc1c(O)nc2ncc(-c3ccc(-c4ccccc4O)cc3)cc2c1O` [Compound 8, 6-(2-Hydroxybiphenyl)-2,4-dihydroxy-1,8-naphthyridine-3-carbonitrile] has an EC50 of at most 10 µM.
Work on `N#Cc1c(O)nc2nc(-c3ccc(-c4ccccc4O)cc3)[nH]c2c1O` [Compound 7, 3-(2-Hydroxybiphenyl)-4,6-dihydroxyimidazo[5,4-b]pyridine-5-carbonitrile] yielded an EC50 of at most 10 µM.
With `Oc1ccccc1-c1ccc(-c2ccc3[nH]ccc3c2)cc1` [Compound 1, 5-(2-Hydroxybiphenyl)-1H-indole] the EC50 was 10 to 50 µM.
Work on `O/N=C/c1c[nH]c2ccc(-c3ccc(-c4ccccc4O)cc3)cc12` [Compound 6, 5-(2-Hydroxybiphenyl)-1H-indole-3-carbaldehyde oxime] yielded an EC50 of at least 50 µM.
`N#Cc1c(O)nc2cccc(-c3ccc(-c4ccccc4O)cc3)c2c1O` [Compound 3, 5-(2-Hydroxybiphenyl)-2,4-dihydroxyquinoline-3-carbonitrile] gave an EC50 of at most 10 µM.
For `N#Cc1c(O)nc2ccc(-c3ccc(-c4ccccc4O)cc3)cc2c1O` [Compound 2, 6-(2-Hydroxybiphenyl)-2,4-dihydroxyquinoline-3-carbonitrile], the EC50 was at most 10 µM.
`O=Cc1c[nH]c2ccc(-c3ccc(-c4ccccc4O)cc3)cc12` [Compound 4, 5-(2-Hydroxybiphenyl)-1H-indole-3-carbaldehyde] gave an EC50 of 10 to 50 µM.
